The source of these data is article PMC9995496, “A screen for MeCP2-TBL1 interaction inhibitors using a luminescence-based assay” (Scientific Reports, 2023).

Counter-ions that a name gives are not always drawn. Like-named read-outs stand apart in the source and are kept apart here. Peptide text beside a SMILES is read from it. * marks the point of attachment. Cbz = O=C(OCc1ccccc1)*; CH2F = FC*

This experiment concerns PRKACA-PRKAR2A interaction (SmBiT-PRKACA / LgBiT-PRKAR2A), protein kinase A. On the set-up: NanoLuc complementation counter-screen in cell extract, PRKACA with PRKAR2A, loss of luminescence, detects NanoLuc interference. As to conditions: 0.5 h, 20 µM, inhibitor.
The mark [1] stands for this setting: counter-screen for NanoLuc interference.
The mark [2] stands for this setting: counter-screen for NanoLuc interference, Inh (PKA).

As to `C[C@H]1O[C@H](O[C@H]2[C@H](O)[C@@H](O)[C@@H](O[C@H]3[C@H](O)[C@@H](O)C(O)O[C@@H]3CO)O[C@@H]2CO)[C@H](O)[C@@H](O)[C@@H]1N[C@H]1C=C(CO)[C@@H](O)[C@H](O)[C@H]1O` (stereo partly shown) [UM0141458:01, Acarbose], the “Inh (PKA)” value under setting [1] is recorded as 2.661%.

`Oc1c2ccccc2c2c3c(cccc13)N=N2` [UM0051399:06, SP 600125]: the “Inh (PKA)” value under setting [1] is 23.18%.

For `CC(C)(C)c1cc(C(=O)/C(C#N)=N/Nc2cccc(Cl)c2)no1` [UM0055456:02, ESI-09], the “Inh (PKA)” value under setting [1] is reported as 77.71%.

For the compound `Nc1c(Br)cc(Br)cc1CN[C@H]1CC[C@H](O)CC1` [UM0142466:01, Ambroxol HCl], the “Inh (PKA)” value under setting [1] is given as 4.132%.

Take `COc1cc2c(cc1OC)CN(CCc1ccc(NC(=O)c3cc(OC)c(OC)cc3NC(=O)c3cnc4ccccc4c3)cc1)CC2` [UM0141951:01, Tariquidar]: under setting [1], the “Inh (PKA)” value was 12.46%.

`CS(=O)(=O)CCNCc1ccc(-c2ccc3ncnc(Nc4ccc(OCc5cccc(F)c5)c(Cl)c4)c3c2)o1` [UM0127953:02, Lapatinib]: the “Inh (PKA)” value under setting [2] was determined as 55.05%.

For the compound `CC1=Nc2ccc(Cl)cc2S(=O)(=O)N1` [UM0142775:01, Diazoxide], the “Inh (PKA)” value under setting [1] is recorded as -0.314%.

Take `CN[C@@H]1[C@H](O[C@H]2[C@H](O[C@H]3[C@H](O)[C@@H](O)[C@H](N=C(N)N)[C@@H](O)[C@@H]3N=C(N)N)O[C@@H](C)[C@]2(O)C=O)O[C@@H](CO)[C@H](O)[C@H]1O` [UM0142407:01, Streptomycin sulfate]: the “Inh (PKA)” value under setting [1] is 1.585%.

As to `CN1CCN(c2nc(C3=C(c4c[nH]c5ccccc45)C(=O)NC3=O)c3ccccc3n2)CC1` [UM0142072:01, Sotrastaurin (AEB071)], the “Inh (PKA)” value under setting [1] was found to be 65.03%.

Take `CN(C)CCCNC(=O)c1ccc(-c2cc(O)c3ncccc3c2)cc1` [UM0142607:01, ML324]: the “Inh (PKA)” value under setting [1] worked out at 3.619%.

As to `CC[N+](CC)(CC)CCOc1cccc(OCC[N+](CC)(CC)CC)c1OCC[N+](CC)(CC)CC` [UM0118287:03, Gallamine Triethiodide], the “Inh (PKA)” value under setting [1] is 0.3342%.

In the case of `Cc1cnc(CNC(=O)c2c(=O)c3ccc(N4CCCN(C)CC4)nc3n3c2sc2ccccc23)cn1` [UM0142001:01, CX-5461], the “Inh (PKA)” value under setting [1] turned out to be 4.891%.

Turning to `CCc1c(C(=O)C(N)=O)c2c(OCC(=O)O)cccc2n1Cc1ccccc1` [UM0141806:01, Varespladib (LY315920)], the “Inh (PKA)” value under setting [1] stood at 1.134%.

On to `COC1=C2C[C@@H](C)C[C@H](OC)[C@H](O)[C@@H](C)/C=C(\C)[C@H](OC(N)=O)[C@@H](OC)/C=C\C=C(/C)C(=O)NC(=CC1=O)C2=O` [UM0141686:01, Geldanamycin], for which, under setting [1], the “Inh (PKA)” value came to 5.017%.

Take `CC(C)CN(C[C@@H](O)[C@H](Cc1ccccc1)NC(=O)O[C@H]1CO[C@H]2OCC[C@H]21)S(=O)(=O)c1ccc(N)cc1` [UM0141950:01, Darunavir]: under setting [1], the “Inh (PKA)” value is 4.833%.

For the compound `O=C1C[C@@H](c2ccc(O)cc2)Oc2cc(O)cc(O)c21` [UM0142845:01, Naringenin], the “Inh (PKA)” value under setting [1] was found to be 6.247%.

`O=C1N=C(NCc2cccs2)S/C1=C\c1ccc2ncccc2c1` [UM0142145:01, Ro 3306]: the “Inh (PKA)” value under setting [1] is recorded as 23.14%.

Take `C=C1C[C@@H]2[C@H](CC[C@]3(C)C(=O)CC[C@@H]23)[C@@]2(C)C=CC(=O)C=C12` [UM0141388:01, Exemestane]: the “Inh (PKA)” value under setting [1] is recorded as 1.515%.

As for `NS(=O)(=O)c1ccc(NC(=O)Nc2ccc(F)cc2)cc1` [UM0141807:01, U-104], the “Inh (PKA)” value under setting [1] is on record as 3.096%.

For `C=CC(=O)Nc1cc(Nc2nccc(-c3c[nH]c4ccccc34)n2)c(OC)cc1N(C)CCN(C)C` [UM0142657:01, AZ5104], under setting [1], the “Inh (PKA)” value came to 4.603%.

For the compound `O=C(Nc1cccc(Nc2ncc(Br)c(NCCc3cnc[nH]3)n2)c1)N1CCCC1` [UM0141484:01, BX-912], the “Inh (PKA)” value under setting [1] came to 45.28%.

With `COC(=O)C[C@H](NC(=O)[C@H](C)NC(=O)[C@@H](NC(=O)OCc1ccccc1)C(C)C)C(=O)CF` [UM0141421:01, Z-VAD-FMK] (Cbz-Val-Ala-Asp(OMe)-CH2F), the “Inh (PKA)” value under setting [1] is on record as 1.417%.

With `CC1(C)CCC2=C(O1)c1ccccc1C(=O)C2=O` [UM0133760:02, Beta-Lapachone], under setting [1], the “Inh (PKA)” value was 9.4%.

For `CC(C(=O)O)c1cccc(C(=O)c2ccccc2)c1` (stereo not shown) [UM0142261:01, Ketoprofen], the “Inh (PKA)” value under setting [1] is on record as -0.4888%.

As for `Cn1nnc2c(C(N)=O)ncn2c1=O` [UM0135509:03, Temozolomide], the “Inh (PKA)” value under setting [1] stood at 1.163%.

In the case of `CCOC(=O)C1=C(C)NC(C)=C(C(=O)OCC)C1c1ccccc1/C=C/C(=O)OC(C)(C)C` [UM0142247:01, Lacidipine], under setting [1], the “Inh (PKA)” value turned out to be 92.96%.

For the compound `C[C@H](Cc1ccc(O)c(O)c1)[C@@H](C)Cc1ccc(O)c(O)c1` [UM0141592:01, Nordihydroguaiaretic acid], the “Inh (PKA)” value under setting [1] is on record as 80.65%.

With `COc1ccc(CNc2nc(N(CCO)CCO)nc3c2ncn3C(C)C)cc1` [UM0127838:02, CVT-313], the “Inh (PKA)” value under setting [1] worked out at 6.845%.

For `Nc1ccc2ncnc(NCCc3ccc(Oc4ccccc4)cc3)c2c1` [UM0127892:02, QNZ (EVP4593)], the “Inh (PKA)” value under setting [1] turned out to be 24.11%.

Regarding `CCCCCCCCCCCCc1ccc(S(=O)(=O)Nc2nncs2)cc1` [UM0141916:01, PHT-427], under setting [1], the “Inh (PKA)” value was determined as 11.59%.

Regarding `NCC1(CC(=O)O)CCCCC1` [UM0118203:03, Gabapentin], the “Inh (PKA)” value under setting [2] stood at 0.7345%.

Take `CN1CCN(CCOc2cc(OC3CCOCC3)c3c(Nc4c(Cl)ccc5c4OCO5)ncnc3c2)CC1` [UM0141443:01, Saracatinib (AZD0530)]: under setting [1], the “Inh (PKA)” value turned out to be 2.374%.

Consider `Clc1cccc(Cl)c1NC1=NCCN1` [UM0134172:02, Clonidine HCl], for which the “Inh (PKA)” value under setting [1] stood at 1.329%.

Turning to `Cc1nc(Nc2ncc(C(=O)Nc3c(C)cccc3Cl)s2)cc(N2CCN(CCO)CC2)n1` [UM0127943:04, Dasatinib (BMS-354825)], the “Inh (PKA)” value under setting [1] was found to be 9.592%.

Take `NC[C@H]1O[C@H](O[C@H]2[C@H](O[C@@H]3O[C@H](CO)[C@@H](O)[C@H]3O)[C@@H](O)[C@H](N)C[C@@H]2N)[C@H](N)[C@@H](O)[C@@H]1O` [UM0142378:01, Ribostamycin Sulfate]: the “Inh (PKA)” value under setting [1] is on record as 35.19%.

In the case of `CCCCN1CCCCC1C(=O)Nc1c(C)cccc1C` (stereo not shown) [UM0142248:01, Bupivacaine HCl], the “Inh (PKA)” value under setting [1] is given as -0.8766%.

With `O=C(NNc1nc2cc(F)ccc2n2cccc12)c1cnccn1` [UM0141448:01, SC 144], the “Inh (PKA)” value under setting [1] is 4.683%.

In the case of `CCCCCCCN(CC)CCCC(O)c1ccc(NS(C)(=O)=O)cc1` (stereo not shown) [UM0142470:01, Ibutilide Fumarate], the “Inh (PKA)” value under setting [1] was 0.4733%.

Take `CCCCOc1ccc(CC(=O)NO)cc1` [UM0118579:03, Bufexamac]: the “Inh (PKA)” value under setting [1] is recorded as 1.558%.

For `CC(C)c1cc(C(=O)N2Cc3ccc(CN4CCN(C)CC4)cc3C2)c(O)cc1O` [UM0141683:01, AT13387], the “Inh (PKA)” value under setting [1] was 8.919%.

On to `Cc1[nH]c(=O)c(C#N)cc1-c1ccncc1` [UM0133819:02, Milrinone], for which the “Inh (PKA)” value under setting [1] was -0.01503%.

As for `O=C(c1ccc(Nc2nccc(-c3cc4ccccc4s3)n2)cc1)N1CCC(N2CCCC2)CC1` [UM0142314:01, IKK-16 (IKK Inhibitor VII)], the “Inh (PKA)” value under setting [1] worked out at 16.61%.

As for `Cc1c(-c2ccnn2C)cc(C(=O)NCc2ccc(S(C)(=O)=O)cn2)c(=O)n1-c1cccc(C(F)(F)F)c1` [UM0142161:01, Alvelestat], under setting [1], the “Inh (PKA)” value was 0.5125%.

In the case of `Cc1ccccc1C(C(=O)NC1CCCCC1)N(C(=O)Cn1ccnc1C)c1cccc(F)c1` (stereo not shown) [UM0141795:01, AGI-5198], under setting [1], the “Inh (PKA)” value turned out to be 4.354%.

Regarding `O=C1NC(=O)C(=Cc2ccc(-c3ccc(F)cc3)o2)S1` (stereo in doubt) [UM0142434:01, CAY10505], under setting [1], the “Inh (PKA)” value is 43.9%.

As to `CCCCCCOC(=O)NC(=N)c1ccc(NCc2nc3cc(C(=O)N(CCC(=O)OCC)c4ccccn4)ccc3n2C)cc1` [UM0141539:01, Dabigatran etexilate mesylate], the “Inh (PKA)” value under setting [2] was determined as 7.702%.

For the compound `Cc1ccc(-c2csc3ncnc(SCCC(=O)O)c23)cc1` [UM0141643:01, TTP 22], under setting [1], the “Inh (PKA)” value is recorded as 12.61%.

On to `COC(=O)C1=CCCN(C)C1` [UM0053253:04, Arecoline hydrobromide], for which the “Inh (PKA)” value was -0.2973%.

As to `CCOC(=O)N1c2ccc(C(F)(F)F)cc2[C@@H](N(Cc2cc(C(F)(F)F)cc(C(F)(F)F)c2)C(=O)OC)C[C@H]1CC` [UM0141819:01, Torcetrapib], the “Inh (PKA)” value under setting [1] is recorded as 4.254%.

In the case of `COc1ccc2c(c1)c(C1=C(c3c[nH]c4ccccc34)C(=O)NC1=O)cn2CCCN(C)C` [UM0127865:02, Go 6983], under setting [1], the “Inh (PKA)” value came to 49.99%.

In the case of `CC[C@@]1(O)C(=O)OCc2c1cc1n(c2=O)Cc2cc3c(CN(C)C)c(O)ccc3nc2-1` [UM0142480:01, Topotecan HCl], the “Inh (PKA)” value under setting [1] is on record as 19.17%.

For the compound `O=C(CCN1CCN(C(=O)OCc2cc(Cl)cc(Cl)c2)CC1)c1ccc2[nH]c(=O)oc2c1` [UM0141604:01, PF-8380], the “Inh (PKA)” value under setting [1] is 13.11%.

With `O=C(c1ccccc1)c1ccc2n1CCC2C(=O)O` (stereo not shown) [UM0142511:01, Ketorolac], the “Inh (PKA)” value under setting [2] is 0.7443%.

For `C[C@]12CC[C@H]3[C@@H](CC[C@@]45O[C@@H]4C(O)=C(C#N)C[C@]35C)[C@@H]1CC[C@@H]2O` [UM0141801:01, Trilostane], the “Inh (PKA)” value under setting [1] is listed as 1.891%.

As for `COc1ccc(-c2coc3cc(O)cc(O)c3c2=O)cc1` [UM0133867:02, Biochanin A], the “Inh (PKA)” value under setting [1] is listed as 69.13%.

With `CCN(C)C(=O)Oc1cccc([C@H](C)N(C)C)c1` [UM0141620:01, Rivastigmine], under setting [2], the “Inh (PKA)” value is 1.357%.

Regarding `Cc1cc(OCc2nnc(SC3CCCC3)n2-c2cccnc2)ccc1-c1ccc(S(C)(=O)=O)cc1` [UM0142426:01, NMS-873], under setting [1], the “Inh (PKA)” value worked out at 10.54%.

In the case of `Nc1ncnc2c1c(-c1cccc(OCc3ccccc3)c1)cn2[C@H]1C[C@@H](CN2CCC2)C1` [UM0141453:01, NVP-AEW541], the “Inh (PKA)” value under setting [1] is recorded as 10.76%.
